According to PMC5137965 (Future Science OA, 2016):

Columns and labels:
[1] = Stock and working solution stability; assay type: physicochemical; conditions: for Short-term stability, %Stability: 8.46 h at room temperature; for Stock solution stability, %Stability: 21 days, stock solutions in methanol stored at refrigerator temperature 1–10°C; for working solutions found stable for: room temperature
Experimental: Separate stock solutions were used to prepare calibration curve (CC) standards and quality (QC) control samples. The prepared stock solutions were protected from light and stored in refrigerator between 1–10°C until use. A fresh working solution of IS (1500.00 ng/ml) was prepared everyday by taking appropriate dilution of the stock solution in methanol:water (50:50 v/v).
Stock solution stability of both analyte and internal standard was carried out for 21 days at refrigerated temperature (1–10°C). Short-term stability both analyte and internal standard was carried out for 8.46 h at room temperature.

[2] = Stability of spiked human plasma QC samples (bench top, freeze-thaw, autosampler, long-term); assay type: in vitro ADME; conditions: for Auto sampler stability (100.87 h), %Nominal, stability QC samples: processed samples
[3] = Blood stability (sample collection process stability) at room temperature; assay type: in vitro ADME, human; conditions: 2.45 h at room temperature
[4] = cited from earlier work
[5] = human plasma, low concentration QC

| Short-term stability, %Stability [1] [%] | Stock solution stability, %Stability [1] [%] | working solutions found stable for [1] [h] | stock solution found stable for ([1]; stored in refrigerator between 1 and 10°C) [days] | processed samples stable in auto sampler for ([2]; at 10°C) [h] | Bench top stability during extraction (9.60 h), %Nominal, stability QC samples ([2]; high concentration QC) [%] | bench top stability in matrix ([2]; human plasma, 6.15 h) [%] | comparative freeze-thaw stability at the end of third freeze and thaw cycle ([2]; human plasma, below -15°C and below -50°C) [%] | Freeze thaw stability (three freeze thaw cycles, below -50°C), %Nominal, stability QC samples ([2]; human plasma, high concentration QC) [%] | Bench top stability in matrix (6.15 h), %Nominal, stability QC samples [2, 5] [%] | Freeze thaw stability (three freeze thaw cycles, below -15°C), %Nominal, stability QC samples [2, 5] [%] | Freeze thaw stability (three freeze thaw cycles, below -50°C), %Nominal, stability QC samples [2, 5] [%] | Bench top stability during extraction (9.60 h), %Nominal, stability QC samples ([2]; low concentration QC) [%] | Auto sampler stability (100.87 h), %Nominal, stability QC samples ([2]; high concentration QC) [%] | Auto sampler stability (100.87 h), %Nominal, stability QC samples ([2]; low concentration QC) [%] | %Stability ([3]; HQC) [%] | %Stability ([3]; LQC) [%] | Structure (SMILES) | permeability ([4]; inferred from almost complete oral absorption) | Tmax ([4]; oral) [h] |
| --- | --- | --- | --- | --- | --- | --- | --- | --- | --- | --- | --- | --- | --- | --- | --- | --- | --- | --- | --- |
| 100.96 | 99.15 | 16 |  |  |  |  |  |  |  |  |  |  |  |  |  |  | [2H]c1c([2H])c(C(=O)Nc2ccc(C)c(Nc3nccc(-c4cccnc4)n3)c2)c([2H])c([2H])c1CN1CCN(C)CC1 [imatinib-D4] |  |  |
| 101.88 | 101.63 | 16 | 21 | 100.87 | 98.96 | 97.75 to 100.23 | 97.45 to 101.41 | 102.3 | 96.03 | 97.16 | 97.03 | 94.80 | 102.61 | 98.34 | 99.27 | 100.72 | Cc1ccc(NC(=O)c2ccc(CN3CCN(C)CC3)cc2)cc1Nc1nccc(-c2cccnc2)n1 [imatinib] | high permeability | 2 to 4 |
